For the test, the system named is T1, SARM1 TIR domain (DmrB–TIR).
T1 construct: the SARM1 TIR domain was constructed into an Fkbp variant (DmrB); expressed in transfected cells; host or cells: 293T cells
Nature of the test: DmrB–TIR dimerization (AP20187)-induced cell death in 293T cells. Particulars: 24 h after AP20187 addition. In kind it is cell-based. An excerpt:
To verify the inhibitory mechanism of SARM1 owing to the TIR domain, the SARM1 TIR domain was constructed into an Fkbp variant (DmrB) at its N terminus, which undergoes homodimerization in the presence of AP20187 (a rapamycin analog) (Figure 2A).
Figure 2 Design and characterization of the toxic effects of the SARM1 TIR domain in 293T cells using different compounds. (A) Scheme for TIR dimerization to verify the TIR domain using an Frb–Fkbp moiety fusion. (B) Compounds used and NR display prevention of DmrB–TIR-dependent death 24 h after AP20187 addition.

Consider `NC(=O)c1ccc[n+]([C@@H]2O[C@H](CO)[C@@H](O)[C@H]2O)c1` [NR], for which the “prevention of DmrB–TIR-dependent cell death (cell viability)” value is given as “cell death caused by TIR dimerization was alleviated”.

For the origin of these results see article PMC11428815, “Characterization of Novel SARM1 Inhibitors for the Treatment of Chemotherapy-Induced Peripheral Neuropathy” (Biomedicines, 2024).
